Inhibition and Ki data for 23 compounds are collected here from US5128359A, “Benzimidazole and azabenzimidazole derivatives which are thromboxane receptor antagonists, their methods of preparation” (Laboratoires UPSA, priority 1990, dated 1992).

The target of this assay is T1, TXA2 receptors of human platelets (Homo sapiens, UniProt P21731).
T1 construct: Human platelets incubate in the presence of a single concentration; endogenous in cells; host or cells: human platelets
T1 sequence (P21731 1-343): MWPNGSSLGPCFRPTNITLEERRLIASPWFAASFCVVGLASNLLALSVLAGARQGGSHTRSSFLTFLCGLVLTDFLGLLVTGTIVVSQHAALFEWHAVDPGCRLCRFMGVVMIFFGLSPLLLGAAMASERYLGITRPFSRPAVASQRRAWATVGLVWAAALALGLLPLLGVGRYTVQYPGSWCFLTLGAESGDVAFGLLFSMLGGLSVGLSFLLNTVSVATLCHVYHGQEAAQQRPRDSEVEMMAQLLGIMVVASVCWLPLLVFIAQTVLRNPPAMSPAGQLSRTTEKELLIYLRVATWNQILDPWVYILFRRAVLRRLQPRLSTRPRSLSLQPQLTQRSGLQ
In words: displacement of radioligand [^125 I]PTA-OH specifically bound to the TXA2 receptors of human platelets. The format is binding. As to conditions: for inhibition at 10 µM / inhibition at 0.1 µM: 0.5 h, 30 minutes at 37° C; for inhibition at 10 µM: 1E-5 M competing agent, read-out: % displacement, Concentration 1E-5 M; for inhibition at 0.1 µM: 1E-7 M competing agent, read-out: % displacement, Concentration 1E-7 M; for Ki: determined according to the formula of CHENG and PRUSOFF, read-out: Ki (inhibition constant). The protocol:
The affinity of the products of the Examples described for thromboxane A2 receptors is evaluated by the technique of displacing a radioligand specifically bound to the TXA2 receptors of human platelets. […] The reaction is completed by the addition of a buffer, followed by rapid filtration through […] filters. […] The results are expressed, for the doses tested, as the percentage displacement of the radioligand specifically bound to the TXA2 receptors of human platelets.

`CCC(CC)(CC(=O)O)Cc1nc2ccccc2n1Cc1ccc(Cl)cc1` [Example 82, 4-[1-(4-Chlorobenzyl)benzimidazol-2-yl]-3,3-diethylbutanoic acid]: the inhibition at 10 µM amounted to 97% and the inhibition at 0.1 µM worked out at 35%.

For the compound `CC(CC(=O)O)Cc1nc2ccccc2n1Cc1ccc(Cl)cc1` (stereo not drawn) [Example 83, 4-[1-(4-Chlorobenzyl)benzimidazol-2-yl]-3-methylbutanoic acid], the inhibition at 10 µM is 100% and the inhibition at 0.1 µM came to 10%.

Regarding `CC(C)(CC(=O)O)Cc1nc2ccccc2n1Cc1ccc2ccccc2c1` [Example 84, 4-[1-(Naphth-2-ylmethyl)benzimidazol-2-yl]-3,3-dimethylbutanoic acid], the inhibition at 10 µM is 98% and the inhibition at 0.1 µM was 85%.

Take `CC(C)(CC(N)=O)Cc1nc2ccccc2n1Cc1ccc(Cl)cc1` [Example 85, 4-[1-(4-Chlorobenzyl)benzimidazol-2-yl]-3,3-dimethylbutanamide]: the inhibition at 10 µM came to 90% and the inhibition at 0.1 µM was 7%.

As to `CC(C)(CC(=O)O)Cc1nc2ccccc2n1Cc1ccc(O)cc1` [Example 87, 4-[1-(4-Hydroxybenzyl)benzimidazol-2-yl]-3,3-dimethylbutanoic acid], the inhibition at 10 µM came to 96% and the inhibition at 0.1 µM turned out to be 50%.

`CC(C)(CC(=O)O)Cc1nc2cc(Cl)cnc2n1Cc1ccc(Cl)cc1` [Example 92]: the inhibition at 10 µM stood at 100%, the inhibition at 0.1 µM was 97% and the inhibitory constant (Ki) turned out to be 12.5 nM.

For the compound `CSc1ccc(Cn2c(CC(C)(C)CC(=O)O)nc3cc(F)ccc32)cc1` [Example 96, 4-[1-(4-Methylthiobenzyl)-5-fluorobenzimidazol-2-yl]-3,3-dimethylbutanoic acid], the inhibition at 10 µM came to 100%, the inhibition at 0.1 µM worked out at 100% and the inhibitory constant (Ki) is 5 nM.

Regarding `CC(C)(CC(=O)O)Cc1nc2cc(F)ccc2n1Cc1ccc(S(C)(=O)=O)cc1` [Example 97, 4-[1-(4-Methylsulfonylbenzyl)-5-fluorobenzimidazol-2-yl]-3,3-dimethylbutanoic acid], the inhibition at 10 µM came to 100%, the inhibition at 0.1 µM worked out at 100% and the Ki came out at 37 nM.

As to `CC(C)(CC(=O)O)Cc1nc2cc(Cl)ccc2n1Cc1ccc(Cl)c(Cl)c1` [Example 101, 4-[1-(3,4-Dichlorobenzyl)-5-chlorobenzimidazol-2-yl]-3,3-dimethylbutanoic acid], the inhibition at 10 µM is 92% and the inhibition at 0.1 µM amounted to 71%.

Take `CC(C)(CC(=O)O)Cc1nc2cc(F)ccc2n1Cc1ccc(Br)cc1F` [Example 105, 4-[1-(2-Fluoro-4-bromobenzyl)-5-fluorobenzimidazol-2-yl]-3,3-dimethylbutanoic acid]: the inhibition at 10 µM worked out at 98% and the inhibition at 0.1 µM worked out at 100%.

In the case of `CC(C)(CC(=O)O)Cc1nc2cc(F)ccc2n1Cc1ccc(Br)cc1` [Example 109, 4-[1-(4-Bromobenzyl)-5-fluorobenzimidazol-2-yl]-3,3-dimethylbutanoic acid], the inhibition at 10 µM came to 92% and the inhibition at 0.1 µM came to 95%.

Turning to `CSc1ccc(Cn2c(CC(C)(C)CC(=O)O)nc3cc(Cl)ccc32)cc1` [Example 117, 4-[1-(4-Methylthiobenzyl)-5-chlorobenzimidazol-2-yl]-3,3-dimethylbutanoic acid], the inhibition at 10 µM stood at 89%, the inhibition at 0.1 µM worked out at 87% and the Ki amounted to 5.8 nM.

`C[S+]([O-])c1ccc(Cn2c(CC(C)(C)CC(=O)O)nc3cc(Cl)ccc32)cc1` (stereo not drawn) [Example 118, 4-[1-(4-Methylsulfoxybenzyl)-5-chlorobenzimidazol-2-yl]-3,3-dimethylbutanoic acid]: the inhibition at 10 µM amounted to 92% and the inhibition at 0.1 µM turned out to be 54%.

Consider `CC(C)(CC(=O)O)Cc1nc2cc(Cl)ccc2n1Cc1ccc(S(C)(=O)=O)cc1` [Example 119, 4-[1-(4-Methylsulfonylbenzyl)-5-chlorobenzimidazol-2-yl]-3,3-dimethylbutanoic acid], for which the inhibition at 10 µM amounted to 82% and the inhibition at 0.1 µM is 61%.

In the case of `CC(C)(CC(=O)O)Cc1nc2cc(Cl)ccc2n1Cc1ccc(Cl)cc1F` [Example 123, 4-[1-(2-Fluoro-4-chlorobenzyl)-5-chlorobenzimidazol-2-yl]3,3-dimethylbutanoic acid], the inhibition at 10 µM stood at 87% and the inhibition at 0.1 µM was 77%.

Regarding `CC(C)(CC(=O)O)Cc1nc2cc(Br)ccc2n1Cc1ccc(Cl)cc1` [Example 127, 4-[1 (4-Chlorobenzyl)-5-bromobenzimidazol-2-yl]-3,3-dimethylbutanoic acid], the inhibition at 10 µM turned out to be 67% and the inhibition at 0.1 µM came out at 38%.

For the compound `COc1ccc(Cn2c(CC(C)(C)CC(=O)O)nc3cc(F)ccc32)cc1` [Example 131, 4-[1-(4-Methoxybenzyl)-5 fluorobenzimidazol-2-yl]-3,3-dimethylbutanoic acid], the inhibition at 10 µM came to 100% and the inhibition at 0.1 µM was found to be 79%.

Take `CC(C)(CC(=O)O)Cc1nc2cc(Cl)ccc2n1Cc1ccc(Br)cc1F` [Example 135, 4-[1-(2-Fluoro-4-bromobenzyl)-5-chlorobenzimidazol-2-yl]3,3-dimethylbutanoic acid]: the inhibition at 10 µM was 95% and the inhibition at 0.1 µM came to 74%.

As for `CC(C)(CC(=O)O)Cc1nc2cc(Cl)ccc2n1Cc1ccc(Br)cc1` [Example 139, 4-[1 (4-Bromobenzyl)-5-chlorobenzimidazol-2-yl]-3,3-dimethylbutanoic acid], the inhibition at 10 µM was 100%, the inhibition at 0.1 µM was found to be 98% and the Ki was found to be 13 nM.

With `CC(C)(CC(=O)O)Cc1nc2cc(Cl)ccc2n1Cc1ccc2ccccc2c1` [Example 143, 4-[1-(Naphth-2-ylmethyl)-5-chlorobenzimidazol-2-yl]-3,3-dimethylbutanoic acid], the inhibition at 10 µM was 89% and the inhibition at 0.1 µM amounted to 77%.

Turning to `CC(C)(CC(=O)O)Cc1nc2cc(F)ccc2n1Cc1ccc2ccccc2c1` [Example 147, 4-[1(Naphth-2-ylmethyl)-5-fluorobenzimidazol-2-yl]-3,3-dimethylbutanoic acid], the inhibition at 10 µM came to 93% and the inhibition at 0.1 µM is 91%.

On to `O=C(O)CC1(Cc2nc3cc(F)ccc3n2Cc2ccc(Cl)cc2)CC1` [Example 150, [1-[1-(4-Chlorobenzyl)-5-fluorobenzimidazol-2-yl]methylcycloprop-1-yl]acetic acid], for which the inhibition at 10 µM was found to be 98% and the inhibition at 0.1 µM is 80%.

Regarding `CC(C)(CCC(=O)O)Cc1nc2cc(F)ccc2n1Cc1ccc(Cl)cc1` [Example 158, 5-[1-(4-Chlorobenzyl)-5-fluorobenzimidazol-2-yl]-4,4-dimethylpentanoic acid], the inhibition at 10 µM was found to be 87% and the inhibition at 0.1 µM was 56%.

As usually defined, the Ki is the equilibrium dissociation constant of an inhibitor or competing ligand from its target.
